Laboratory results: patent US7012067B2, “Blood lipid ameliorant composition” (Sankyo Company, Limited, priority 2000, dated 2006)

Legend:
Assay type in all cases: in vivo
[1] = tested on: blood lipid peroxides; assay: Blood lipid peroxide levels in dogs (Yagi's methods); details: beagle dogs, oral once daily, relative to pre-dosing level (100), mean of 5, simvastatin 1 mg/kg
Description: (§1) Beagle dogs aged 5 months were purchased from Covance Research Products Inc. and used after 1 month of quarantine and acclimatisaton breeding.
(§2) The required amounts of simvastatin or each component of the combination drug calculated from the body weight of each dog were weighed and filled in a gelatin capsule (½ ounce) purchased from TORPAC Inc. Capsules filled with simvastatin were stocked in a refrigerator and those filled with combination drugs stocked at room temperature until use.
(§3) The combination drugs were filled in identical gelatin capsules.
(§4) Simvastatin or combination drug capsules were forcibly orally administered to each of the test animals once daily between 9:00 and 12:30. Animals were fasted for 2 or 3 hr prior to administration of the capsules.
(§5) The administration period was 11 successive days.
(§6) Blood (10 mL) was collected from the superficial radial vein 2 or 1 weeks prior to administration and 4, 8, and 12 days after administration was started. Animals were fasted for approximately 18 hr prior to blood collection. Collected blood was placed in a test tube and left at room temperature for 0.5-1 hr, before being centrifuged (3,000 rpm for 10 min). The obtained serum was used for assays of blood levels of lipid peroxides, total cholesterol, triglycerides, free fatty acids, GOT, and CPK according to Yagi's methods, CEH-COD-POD methods, GK-GPO-POD methods, ACS-ACOD methods, UV-rate methods, and UV-rate methods, respectively. (For ACS-ACOD (Acyl-CoA synthetase-Acyl-CoA oxidase peroxidase) methods, CEH-COD-POD (Cholesterol ester hydrolase-Cholesteroloxidase-Peroxidase) methods, Yagis methods and GK-GPO-POD (Glycerokinase-Glycerolphosphateoxidase-Peroxidase)methods, see: Kanai's Manual of Clinical Laboratory Medicine; 31st Edition (September 1998), Kanehara & Co., Ltd.)
(§7) All these levels were determined using a fluorometer (Hitachi, Ltd., F3000), a full automatic analyzer (Monarch, Instrumentation Laboratory), and an automatic analyzer (7170, Hitachi, Ltd.).
(§8) All these values in dogs treated with one of the drugs described above were converted to their relative ratios against their averaged pre-dosing levels (100) determined 2 and 1 weeks prior to drug administration. The averaged value in each group was obtained from 5 animals per group.

[2] = tested on: CPK; assay: Serum CPK levels in dogs (UV-rate methods); details: beagle dogs, oral once daily, relative to pre-dosing level (100), mean of 5, simvastatin 1 mg/kg, ascorbic acid 500 mg/kg
Description: as §1, §2, §3, §4, §5
(§9) Blood (10 mL) was collected from the superficial radial vein 2 or 1 weeks prior to administration and 4, 8, and 12 days after administration was started. Animals were fasted for approximately 18 hr prior to blood collection. Collected blood was placed in a test tube and left at room temperature for 0.5-1 hr, before being centrifuged (3,000 rpm for 10 min). The obtained serum was used for assays of blood levels of lipid peroxides, total cholesterol, triglycerides, free fatty acids, GOT, and CPK according to Yagi's methods, CEH-COD-POD methods, GK-GPO-POD methods, ACS-ACOD methods, UV-rate methods, and UV-rate methods, respectively.
as §8

[3] = tested on: blood free fatty acids; assay: Blood free fatty acid levels in dogs (ACS-ACOD methods); details: beagle dogs, oral once daily, relative to pre-dosing level (100), mean of 5, simvastatin 1 mg/kg
Description: as §1, §2, §3, §4, §5, §6, §7, §8

[4] = tested on: blood triglycerides; assay: Blood triglyceride levels in dogs (GK-GPO-POD methods); details: beagle dogs, oral once daily, relative to pre-dosing level (100), mean of 5
Description: as §1, §2, §3, §4, §5, §6, §7, §8

[5] = tested on: blood total cholesterol; assay: Blood total cholesterol levels in dogs (CEH-COD-POD methods); details: beagle dogs, oral once daily, relative to pre-dosing level (100), mean of 5, simvastatin 1 mg/kg, taurine 1000 mg/kg
Description: as §1, §2, §3, §4, §5, §6, §7, §8

[6] = tested on: GOT; assay: Serum GOT levels in dogs (UV-rate methods); details: beagle dogs, oral once daily, relative to pre-dosing level (100), mean of 5, simvastatin 1 mg/kg, Tocoph 300 mg/kg
Description: as §1, §2, §3, §4, §5, §9, §8

[7] = simvastatin 1 mg/kg (dose cell of simvastatin alone empty), taurine 1000 mg/kg
[8] = simvastatin 1 mg/kg, Tocoph 300 mg/kg
[9] = simvastatin 1 mg/kg, pantethine 300 mg/kg

SMILES	CPK Levels after administration, 4 days [2]	CPK Levels after administration, 8 days [2]	CPK Levels after administration, 12 days [2]	Blood Lipid Peroxide Levels after administration, 4 days ([1]; ascorbic acid 500 mg/kg)	Blood Lipid Peroxide Levels after administration, 8 days ([1]; ascorbic acid 500 mg/kg)	Blood Lipid Peroxide Levels after administration, 12 days ([1]; ascorbic acid 500 mg/kg)	Blood FFA Levels after administration, 4 days ([3]; ascorbic acid 500 mg/kg)	Blood FFA Levels after administration, 8 days ([3]; ascorbic acid 500 mg/kg)	Blood FFA Levels after administration, 12 days ([3]; ascorbic acid 500 mg/kg)	Blood Lipid Peroxide Levels after administration, 4 days ([1]; RFVb 200 mg/kg)	Blood Lipid Peroxide Levels after administration, 8 days ([1]; RFVb 200 mg/kg)	Blood Lipid Peroxide Levels after administration, 12 days ([1]; RFVb 200 mg/kg)	Blood FFA Levels after administration, 4 days ([3]; RFVb 200 mg/kg)	Blood FFA Levels after administration, 8 days ([3]; RFVb 200 mg/kg)	Blood FFA Levels after administration, 12 days ([3]; RFVb 200 mg/kg)	Blood Lipid Peroxide Levels after administration, 4 days ([1]; taurine 1000 mg/kg)	Blood Lipid Peroxide Levels after administration, 8 days ([1]; taurine 1000 mg/kg)	Blood Lipid Peroxide Levels after administration, 12 days ([1]; taurine 1000 mg/kg)	Blood Triglyceride Levels after administration, 4 days [4, 7]	Blood Triglyceride Levels after administration, 4 days [4, 8]	other results
CCCC(=O)OC[C@@H](OC(=O)CCC)[C@@H](OC(=O)CCC)[C@H](Cn1c2nc(=O)[nH]c(=O)c-2nc2cc(C)c(C)cc21)OC(=O)CCC [RFVb, riboflavin butyrate]	–	–	–	–	–	–	–	–	–	88.9	101.0	80.8	97.6	101.2	92.9	–	–	–	–	–	–
NCCS(=O)(=O)O [Taurine, 2-aminoethanesulfonic acid]	–	–	–	–	–	–	–	–	–	–	–	–	–	–	–	95.8	93.8	87.5	98.6	–	Blood Triglyceride Levels after administration, 8 days [4, 7]: 95.8; Blood Triglyceride Levels after administration, 12 days [4, 7]: 80.8; Blood Total Cholesterol Levels after administration, 4 days [5]: 95.9; Blood Total Cholesterol Levels after administration, 8 days [5]: 90.2; Blood Total Cholesterol Levels after administration, 12 days [5]: 87.2
CC(=O)Oc1c(C)c(C)c2c(c1C)CC[C@@](C)(CCC[C@H](C)CCC[C@H](C)CCCC(C)C)O2 [Tocoph, d-α-tocopherol acetate]	–	–	–	–	–	–	–	–	–	–	–	–	–	–	–	–	–	–	–	106.3	Blood Triglyceride Levels after administration, 8 days [4, 8]: 119.0; Blood Triglyceride Levels after administration, 12 days [4, 8]: 75.9; Blood FFA Levels after administration, 4 days ([3]; Tocoph 300 mg/kg): 115.4; Blood FFA Levels after administration, 8 days ([3]; Tocoph 300 mg/kg): 103.1; Blood FFA Levels after administration, 12 days ([3]; Tocoph 300 mg/kg): 86.2; GOT Levels after administration, 4 days [6]: 114.9; GOT Levels after administration, 8 days [6]: 139.7; GOT Levels after administration, 12 days [6]: 109.1

More lines, main results first:

CPK Levels after administration, 4 days [2]	CPK Levels after administration, 8 days [2]	CPK Levels after administration, 12 days [2]	SMILES	Blood Lipid Peroxide Levels after administration, 4 days ([1]; ascorbic acid 500 mg/kg)	Blood Lipid Peroxide Levels after administration, 8 days ([1]; ascorbic acid 500 mg/kg)	Blood Lipid Peroxide Levels after administration, 12 days ([1]; ascorbic acid 500 mg/kg)	Blood FFA Levels after administration, 4 days ([3]; ascorbic acid 500 mg/kg)	Blood FFA Levels after administration, 8 days ([3]; ascorbic acid 500 mg/kg)	Blood FFA Levels after administration, 12 days ([3]; ascorbic acid 500 mg/kg)	Blood Lipid Peroxide Levels after administration, 4 days ([1]; RFVb 200 mg/kg)	Blood Lipid Peroxide Levels after administration, 8 days ([1]; RFVb 200 mg/kg)	Blood Lipid Peroxide Levels after administration, 12 days ([1]; RFVb 200 mg/kg)	Blood FFA Levels after administration, 4 days ([3]; RFVb 200 mg/kg)	Blood FFA Levels after administration, 8 days ([3]; RFVb 200 mg/kg)	Blood FFA Levels after administration, 12 days ([3]; RFVb 200 mg/kg)	Blood Lipid Peroxide Levels after administration, 4 days ([1]; taurine 1000 mg/kg)	Blood Lipid Peroxide Levels after administration, 8 days ([1]; taurine 1000 mg/kg)	Blood Lipid Peroxide Levels after administration, 12 days ([1]; taurine 1000 mg/kg)	Blood Triglyceride Levels after administration, 4 days [4, 7]	Blood Triglyceride Levels after administration, 4 days [4, 8]	other results
98.3	95.1	91.5	O=C1O[C@H]([C@@H](O)CO)C(O)=C1O [Ascorbic acid, ascorbic acid]	87.6	89.9	94.4	87.4	109.6	97.8	–	–	–	–	–	–	–	–	–	–	–	–
94.5	99.4	91.0	CCC(C)(C)C(=O)O[C@H]1C[C@@H](C)C=C2C=C[C@H](C)[C@H](CC[C@@H]3C[C@@H](O)CC(=O)O3)[C@H]21 [Simvastatin, (+)-(1S,3R,7S,8S,8aR)-1,2,3,7,8,8a-hexahydro-3,7-dimethyl-8-[2-[(2R4R )-tetrahydro-4-hydroxy-6-oxo-2H-pyran-2-yl]ethyl]-1-naphthyl 2,2-dimethylbutanoate]	96.2	86.4	91.0	93.8	99.3	97.0	96.2	86.4	91.0	93.8	99.3	97.0	96.2	86.4	91.0	97.6	96.2	Blood Lipid Peroxide Levels after administration, 4 days ([1]; pantethine 300 mg/kg): 96.2; Blood Lipid Peroxide Levels after administration, 8 days ([1]; pantethine 300 mg/kg): 86.4; Blood Lipid Peroxide Levels after administration, 12 days ([1]; pantethine 300 mg/kg): 91.0; Blood Triglyceride Levels after administration, 4 days [4, 9]: 97.6; Blood Triglyceride Levels after administration, 8 days [4, 7]: 88.9; Blood Triglyceride Levels after administration, 8 days [4, 8]: 86.4; Blood Triglyceride Levels after administration, 8 days [4, 9]: 88.9; Blood Triglyceride Levels after administration, 12 days [4, 7]: 89.3; Blood Triglyceride Levels after administration, 12 days [4, 8]: 91.0; Blood Triglyceride Levels after administration, 12 days [4, 9]: 89.3; Blood FFA Levels after administration, 4 days ([3]; Tocoph 300 mg/kg): 93.8; Blood FFA Levels after administration, 8 days ([3]; Tocoph 300 mg/kg): 99.3; Blood FFA Levels after administration, 12 days ([3]; Tocoph 300 mg/kg): 97.0; Blood Total Cholesterol Levels after administration, 4 days [5]: 102.1; Blood Total Cholesterol Levels after administration, 8 days [5]: 93.2; Blood Total Cholesterol Levels after administration, 12 days [5]: 86.6; GOT Levels after administration, 4 days [6]: 98.1; GOT Levels after administration, 8 days [6]: 93.9; GOT Levels after administration, 12 days [6]: 100.4
